Values of other authors as cited in patent US20220000907A1, “MOUTHWASH/GARGLE, NASAL/ORAL/NASAL SPRAY COVID AND BACTERIOCIDE ARRANGEMENT” (priority 2020, published 2022).

Assays:
[1] = system: microbes; conditions: 1.0% PVPI solution gives 0.1% available iodine
[2] = system: all seven classes of viral organisms

polyvinylpyrrolidone iodine [PVPI]
most effective antimicrobial concentration of PVPI (peak of bell curve of microbial killing) [1]: 1%
effectiveness against all classes of viruses (I-VII) ([2]; PVPI in solution): effective
inactivation of all classes of viruses ([2]; effective concentration of 0.1% available iodine): inactivated
